The results in this text go back to patent publication US20150368209A1, “4-Pyrimidinylamino-benzenesulfonamide derivatives and their use for the inhibition of polo-like kinase 1 (PLK1) for the treatment of cancer and their use for the treatment of bacterial infections” (VICHEM CHEMIE KUTATÓ KFT., priority 2013, published 2015).

One series deals with M. tuberculosis H37Rv. In words: Resazurin reduction microtiter assay (REMA), growth inhibition and MIC determination. The series is classed as cell-based. Conditions: Mycobacterium tuberculosis, 168 h, 7 days at 37° C.; for inhibition at 20 µM: at 20 uM compound, read-out: H37Rv inh % at 20 uM; for MIC: two-fold serial dilution from 100 to 0.16 μM, read-out: H37Rv MIC90.
The next series addresses T1, human PLK1 kinase domain (Homo sapiens, UniProt P53350).
T1 construct: Each reaction consisted of 30 nM enzyme PLK1 kinase domain
In words: In vitro PLK1 assay (IMAP fluorescence polarization kinase assay). It counts as biochemical. Conditions: for IC50: 30 nM PLK1 kinase domain, 16 μM ATP (=Kmapp), 90 min at room temperature; for inhibition at 10 µM: at 10 uM compound. How it is done: The activity of the compounds described in the present invention was determined using a commercially available IMAP Screening Express Assay Kit (Molecular devices).
This method measures the change in the fluorescent polarization of a fluorescently-labeled peptide due to the effect of human PLK1 kinase domain on it. PLK1 kinase assays were performed in low protein binding 384-well plates (Corning 3676). Test compounds were diluted in 100% DMSO to 5 mM stock concentration, the further dilutions were made in H2O or 100% DMSO to desirable concentrations.
Each reaction consisted of 30 nM enzyme PLK1 kinase domain, 400 nM 5TAMRA-RGSFNDTLDFD-NH2 (Genecust Europe), 16 μM ATP (=Kmapp, Sigma-Aldrich) and kinase buffer: 20 mM HEPES pH 7.5 (Sigma-Aldrich), 1 mM DTT (Sigma-Aldrich), 10 mM MgCl2 (Sigma-Aldrich), 0.01% Triton X-100 (Sigma-Aldrich).
For each reaction, 4 or 6 μl containing 5TAMRA-RGSFNDTLDFD-NH2, ATP and kinase buffer were combined with 2 μl diluted compound in H2O or 0.04 μl compound in 100% DMSO. The kinase reaction was started by the addition of 2 μl diluted enzyme. The reaction was allowed to run for 90 minutes at room temperature. The reaction was stopped by adding 15 μl IMAP beads (1:1200 beads in progressive (40% buffer A, 60% buffer B) 1× buffer). After an additional 60 minutes, fluorescent polarization (Ex: 550-10 nm, Em: 590-10 nm, Dich: 561 nm) was measured using Analyst GT multimode reader (Molecular Devices).
(In general: Polarisation of emitted light reports the rotation of a fluorescent probe.)

In brackets after ≈: the same amount, converted by molar mass.

T1 sequence (P53350 53-305 limits assumed): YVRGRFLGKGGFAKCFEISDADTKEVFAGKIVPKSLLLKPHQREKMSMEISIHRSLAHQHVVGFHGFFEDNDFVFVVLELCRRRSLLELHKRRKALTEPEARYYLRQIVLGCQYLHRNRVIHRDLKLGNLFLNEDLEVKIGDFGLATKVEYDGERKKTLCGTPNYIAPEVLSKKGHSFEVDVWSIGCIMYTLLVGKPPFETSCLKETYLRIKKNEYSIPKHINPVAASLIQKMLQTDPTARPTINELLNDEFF

As usually defined, the IC50 is the concentration needed to halve the response being measured. A low value points to inhibition by little substance. With `COc1ccc(-c2cc(Nc3ccc(S(=O)(=O)Nc4onc(C)c4C)cc3)ncn2)c(OC)c1` [Example 37, 4-[6-(2,4-Dimethoxy-phenyl)-pyrimidin-4-ylamino]-N-(3,4-dimethyl-isoxazol-5-yl)-benzenesulfonamide], in the series with M. tuberculosis H37Rv, the inhibition at 20 µM turned out to be 101% and the MIC is 13.7 µM (≈ 6.57 µg/mL). Also, the “HepG2 TD50” value in the series with HepG2 was determined as 16.1. Besides, on human PLK1 kinase domain, the IC50 amounted to 947 nM and the inhibition at 10 µM amounted to 70%.

Regarding `COc1ccc(C)cc1-c1cc(Nc2ccc(S(=O)(=O)Nc3onc(C)c3C)cc2)ncn1` [Example 9, N-(3,4-Dimethyl-isoxazol-5-yl)-4-[6-(2-methoxy-5-methyl-phenyl)-pyrimidin-4-ylamino]-benzenesulfonamide], in the series on M. tuberculosis H37Rv, the inhibition at 20 µM was found to be 101% and the MIC was 19.3 µM (≈ 8.98 µg/mL). Besides, in the series on HepG2, the “HepG2 TD50” value was found to be 19.6. In addition, at human PLK1 kinase domain, the IC50 amounted to 807 nM and the inhibition at 10 µM came out at 67.6%.

With `COc1cccc(OC)c1-c1cc(Nc2ccc(S(=O)(=O)Nc3onc(C)c3C)cc2)ncn1` [Example 22, 4-[6-(2,6-Dimethoxy-phenyl)-pyrimidin-4-ylamino]-N-(3,4-dimethyl-isoxazol-5-yl)-benzenesulfonamide], in the series on M. tuberculosis H37Rv, the inhibition at 20 µM was determined as 102% and the MIC worked out at 7.24 µM (≈ 3.49 µg/mL). The “HepG2 TD50” value in the series on HepG2 is on record as 9.819. The inhibition at 10 µM against human PLK1 kinase domain came out at 10.1%.

For the compound `COc1cccc(F)c1-c1cc(Nc2ccc(S(=O)(=O)Nc3onc(C)c3C)cc2)ncn1` [Example 12, N-(3,4-Dimethyl-isoxazol-5-yl)-4-[6-(2-fluoro-6-methoxy-phenyl)-pyrimidin-4-ylamino]-benzenesulfonamide], in the series with M. tuberculosis H37Rv, the inhibition at 20 µM was 102% and the MIC is 1.13 µM (≈ 0.531 µg/mL). The “HepG2 TD50” value in the series with HepG2 was found to be 19.6. At human PLK1 kinase domain, the half-maximal inhibitory concentration (IC50) was found to be 1460 nM and the inhibition at 10 µM amounted to 83.3%.

Regarding `COc1ccc(C(C)(C)C)cc1-c1cc(Nc2ccc(S(=O)(=O)Nc3onc(C)c3C)cc2)ncn1` [Example 6, 4-[6-(5-tert-Butyl-2-methoxy-phenyl)-pyrimidin-4-ylamino]-N-(3,4-dimethyl-isoxazol-5-yl)-benzenesulfonamide], in the series with M. tuberculosis H37Rv, the inhibition at 20 µM was determined as 94.1% and the MIC worked out at 19.6 µM (≈ 9.95 µg/mL). The “HepG2 TD50” value in the series with HepG2 came out at 19.6. In addition, the inhibition at 10 µM on human PLK1 kinase domain was found to be 26.1%.
